Article PMC12118337, “Development of a Peptide Inhibitor Targeting the C‐SH2 Domain of the SHP2 Phosphatase” (Chembiochem, 2025)
Residues, ends and D or L forms follow the SMILES beside them. *: point of attachment. 5FAM = O=C1OC2(c3ccc(O)cc3Oc3cc(O)ccc32)c2ccc(C(=O)*)cc21; X1 = O=C(O)C(C(=O)O)*

Tests used:
[1] = Peptide stability in Jurkat cell lysate (LC-MS); format: in vitro ADME; conditions: 200 µM peptide, WT Jurkat T cell lysate (RIPA buffer with protease inhibitor cocktail), 37 °C in the dark, 0, 6 or 24 h, peak area at 254 nm normalised to FAM (200 µM) internal control, three independent experiments
Description: 1. Cell culture and cell lines
Jurkat T cells were cultured in RPMI 1640 GlutaMAX (Thermo Fisher Scientific) supplemented with 10% heat-inactivated fetal bovine serum (FBS; Thermo Fisher Scientific), 100 U/mL penicillin (Sigma-Aldrich) and 100 µg/mL streptomycin (Sigma-Aldrich). HeLa cells were cultured in DMEM low glucose GlutaMAX (Thermo Fisher Scientific) supplemented with 10% fetal bovine serum (FBS; Thermo Fisher Scientific), 100 U/mL penicillin (Sigma-Aldrich) and 100 µg/mL streptomycin (Sigma-Aldrich).
Both cell lines tested negative for mycoplasma contamination.
2. Peptide stability in Jurkat cell lysate
The stability of FAM-labelled peptide 26 in WT Jurkat T cell lysate was evaluated by LC-MS. 106 Jurkat cells were washed with 1 mL PBS and lysed in 1 mL ice-cold RIPA buffer (25 mM Tris-HCl pH 7.5, 150 mM NaCl, 1% Nonidet P-40, 1% sodium deoxycholate, 0.1% SDS) containing cOmplete EDTA-free Protease Inhibitor Cocktail (Roche), on ice for 30 minutes vortexing every 10 minutes. Cell lysate was centrifuged at 20000 x g for 20 minutes at 4°C. […] The supernatant was collected on ice, filtered using a 13 mm syringe filter with a 0.2 µm PTFE membrane (Pall Life Sciences) and analysed by analytical HPLC-MS. The area under the peak at 254 nm corresponding to peptide 26 and FAM was determined. […]

SHP2 C‐SH2 domain = target: T1, SHP2 C‐SH2 domain (Homo sapiens, UniProt Q06124); assay: Fluorescence polarization (FP) binding assay, SHP2 C-SH2 domain; conditions: 100 nM FAM-labelled peptide, increasing C-SH2 protein, 50 mM HEPES pH 7.5, 150 mM NaCl, 1 mM EDTA, 0.05% Tween 20, FP at 10 min, three independent experiments in technical triplicates, read-out: K D ± SEM, C‐SH2 (FP)
T1 construct: SHP2 N-SH2 domain (1–105), C-SH2 domain (106–220), PTP domain (224–541) and; His6 (pETM22 vector) (N, cleaved yes); made in house; host or cells: E. coli BL21(DE3)
T1 sequence (Q06124 106-220): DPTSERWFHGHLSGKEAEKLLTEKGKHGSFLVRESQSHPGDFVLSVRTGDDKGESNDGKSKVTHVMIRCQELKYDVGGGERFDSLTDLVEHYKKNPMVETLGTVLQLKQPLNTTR
Description: buffer and stored in 5 mL binding buffer at 4°C. His-tagged 3C protease (0.5 mg; EMBL) was added to the pooled eluted fractions and dialysed using Spectra Por Dialysis Tubing (MWCO 6-8 kDa, 23 mm; Spectrum Labs) in 1 L of binding buffer at 4°C for 3 hours, then overnight in fresh buffer. A new column was prepared by loading 2 mL Ni-NTA Agarose (Invitrogen) as a 50% slurry in EtOH. The column was washed with 10 mL H2O to remove the EtOH and equilibrated with 10 mL binding buffer. The protein/3C protease mixture was loaded onto the column and incubated for 1 hour at 4°C on a rocker. The flow through containing the protein was collected, the column was washed with 100 mL binding buffer and the 3C protease was eluted with 5 mL elution buffer. Protein purification was monitored by SDS-PAGE using NuPAGE 4-12% Bis-Tris Protein Gels (Invitrogen) run in MOPS buffer (50 mM MOPS, 50 mM Tris-HCl pH 7.7, 1 mM EDTA, 0.1% SDS) followed by Coomassie staining using Coomassie Brilliant Blue (Roth). The purified protein was dialysed into the final storage buffer (50 mM HEPES pH 7.5, 150 mM NaCl, 2 mM DTT, 20% glycerol). Aliquots were prepared and stored at -80°C until required. […]
4. Fluorescence polarization
Fluorescence polarization (FP) was used to measure the binding of FAM-labelled peptides to the SHP2 C-SH2, SHP2 N-SH2, SHP2 PTP, CSK SH2 or Src SH2 domains. Each peptide was added to increasing concentrations of SHP2 C-SH2, SHP2 N-SH2, SHP2 PTP, CSK SH2 or Src SH2 protein in FP buffer (50 mM HEPES pH 7.5, 150 mM NaCl, 1 mM EDTA, 0.05% Tween 20) to give a final peptide […]
concentration of 100 nM in a final volume of 200 µL. For baseline subtraction, each peptide was added to FP buffer, instead of protein, with a final peptide concentration of 100 nM in a final volume of 200 µL. Samples were mixed gently then 3 x 60 µL of each sample was transferred into triplicate wells in a 96-well plate (OptiPlate-96 F Black; PerkinElmer). The FP was immediately measured on a Synergy H1 Microplate Reader (BioTek) with the excitation and emission monitored at 485 nm and 528 nm, respectively, over 30 minutes. FP values were automatically calculated by the Gen5 3.03 (BioTek) software associated with the microplate reader. Data were analysed in Excel 2016 by subtracting baseline values from FP values at 10 minutes. Data were then further analysed in GraphPad Prism 6 by plotting the baseline subtracted FP values against the protein concentration and fitting the data to a variable slope model of non-linear regression to obtain the KD values. Data are from three independent experiments, each performed in technical triplicates.
5. Isothermal titration calorimetry […]
Analysis Software (Malvern Panalytical). For the data analysis, a 1:1 binding stoichiometry between the Ac-ITSM(pTyr) and SH2 domain was assumed. ITC measurements were performed once.

For `CC[C@H](C)[C@H](NC(=O)[C@@H](NC(=O)[C@H](C)NC(=O)[C@H](Cc1ccc(OC(C(=O)O)C(=O)O)cc1)NC(=O)[C@H](CCC(=O)O)NC(=O)[C@@H](NC(=O)[C@H](CCC(N)=O)NC(=O)c1ccc2c(c1)C(=O)OC21c2ccc(O)cc2Oc2cc(O)ccc21)[C@@H](C)O)[C@@H](C)O)C(=O)N[C@@H](CCCCN)C(=O)N[C@@H](Cc1c[nH]cn1)C(=O)N1CCC[C@H]1C(N)=O` [peptide 26] (5FAM-QTEY(X1)ATIKHP-NH2), the “stability in Jurkat T cell lysate” value [1] was “stable” and the Kd (SHP2 C‐SH2 domain) was 1600 ± 388 nM.
